Measurements as given in patent US20240124444A1 (Celgene Corporation, priority 2020, published 2024).
Where two headings read alike, the source gives them in different places.

Tested on: C. parvum strain UGA1
Test: C. parvum growth inhibition assay (Nluc luminescence in HCT-8 cells)
Assay type: cell-based, Cryptosporidium parvum
Conditions: for EC50: C. parvum growth inhibition in HCT-8 cells, 48 hours, 6 concentrations 10-0.04 μM; for inhibition at 1 µM / inhibition at 10 µM: HCT-8; for inhibition at 1 µM: read-out: % inh @ 1 uM C. parvum; for inhibition at 10 µM: read-out: % inh @ 10 uM C. parvum
[1] = Cryptosporidium parvum, HCT-8, 48 h
[2] = Cryptosporidium parvum, single point inhibition at 1 uM
[3] = Cryptosporidium parvum, single point inhibition at 10 uM
[4] = Cryptosporidium parvum, single point inhibition @ 1 uM
[5] = Cryptosporidium parvum, single point inhibition @ 10 uM

| Structure (SMILES) | EC50 [1] | inhibition at 1 µM [2] | inhibition at 10 µM [3] | further results |
| --- | --- | --- | --- | --- |
| CCc1cc(-c2cc3cnc(NC4CCOCC4)cc3n2C)ncn1 [Example 389, 2-(6-ethylpyrimidin-4-yl)-1-methyl-N-(tetrahydro-2H-pyran-4-yl)-1H-pyrrolo[3,2-c]pyridin-6-amine] | > 1 µM | – | – | – |
| COC(=O)Nc1cc2[nH]c(C(F)(F)F)cc2cn1 [Example 107, methyl 2-(trifluoromethyl)-1H-pyrrolo[3,2-c]pyridin-6-ylcarbamate] | > 1 µM | – | – | – |
| CCOc1nccc(-c2cc3cnc(NC(=O)c4cccc5cn[nH]c45)cc3[nH]2)n1 [Example 243, N-(2-(2-ethoxypyrimidin-4-yl)-1H-pyrrolo[3,2-c]pyridin-6-yl)-1H-indazole-7-carboxamide] | – | 0 to 33% | 0 to 33% | – |
| Cc1cc(-c2cc3cnc(NC(=O)C4CC4)cc3n2CCN)ncn1 [Example 75, N-(1-(2-aminoethyl)-2-(6-methylpyrimidin-4-yl)-1H-pyrrolo[3,2-c]pyridin-6-yl)cyclopropanecarboxamide] | > 1 µM | – | – | – |
| Cc1cc(-c2cc3cnc(N[C@@H]4CCOC4)cc3[nH]2)ccn1 [Example 13, (R)-2-(2-Methylpyridin-4-yl)-N-(tetrahydrofuran-3-yl)-1H-pyrrolo[3,2-c]pyridin-6-amine] | – | – | – | EC50: 0.5 to 1 µM; inhibition at 1 µM [4]: 33 to 66%; inhibition at 10 µM [5]: 67 to 100% |
| CC(C)c1cc(-c2cc3cnc(NC4CCOCC4)cc3n2C)ncn1 [Example 395, 2-(6-isopropylpyrimidin-4-yl)-1-methyl-N-(tetrahydro-2H-pyran-4-yl)-1H-pyrrolo[3,2-c]pyridin-6-amine] | > 1 µM | – | – | – |
| c1cc(-c2cc3cnc(NC4CCOCC4)cc3[nH]2)ccn1 [Example 353, 2-(pyridin-4-yl)-N-(tetrahydro-2H-pyran-4-yl)-1H-pyrrolo[3,2-c]pyridin-6-amine] | < 0.5 µM | – | – | – |
| Cn1cc(C(=O)Nc2cc3c(cn2)cc(-c2ccnc(NCCC(F)(F)F)n2)n3C)cn1 [Example 133, 1-methyl-N-(1-methyl-2-(2-(3,3,3-trifluoropropylamino)pyrimidin-4-yl)-1H-pyrrolo[3,2-c]pyridin-6-yl)-1H-pyrazole-4-carboxamide] | – | – | – | inhibition at 1 µM [4]: 0 to 33%; inhibition at 10 µM [5]: 67 to 100% |
| CC(=O)Nc1cc2c(cn1)cc(-c1cc(C)ncn1)n2C [Example 119, N-(1-methyl-2-(6-methylpyrimidin-4-yl)-1H-pyrrolo[3,2-c]pyridin-6-yl)acetamide] | > 1 µM | – | – | – |
| Cc1cc(-c2cc3cnc(NC(=O)C4CC4)cc3n2C)ccn1 [Example 83, N-(1-methyl-2-(2-methylpyridin-4-yl)-1H-pyrrolo[3,2-c]pyridin-6-yl)cyclopropanecarboxamide] | > 1 µM | – | – | inhibition at 1 µM [4]: 0 to 33%; inhibition at 10 µM [5]: 0 to 33% |
| Cn1c(-c2ccnc(NCC(F)(F)F)n2)cc2cnc(NC(C)(C)C)cc21 [Example 384, N-tert-butyl-1-methyl-2-(2-(2,2,2-trifluoroethylamino)pyrimidin-4-yl)-1H-pyrrolo[3,2-c]pyridin-6-amine] | > 1 µM | – | – | – |
| Cn1cnc(-c2cc3cnc(NC(=O)C4CC4)cc3[nH]2)c1 [Example 60, N-(2-(1-methyl-1H-imidazol-4-yl)-1H-pyrrolo[3,2-c]pyridin-6-yl)cyclopropanecarboxamide] | > 1 µM | – | – | – |
| Cn1cc(C(=O)Nc2cc3[nH]c(-c4ccnc(OCC(F)F)n4)cc3cn2)cn1 [Example 310, N-(2-(2-(2,2-difluoroethoxy)pyrimidin-4-yl)-1H-pyrrolo[3,2-c]pyridin-6-yl)-1-methyl-1H-pyrazole-4-carboxamide] | – | 0 to 33% | 0 to 33% | – |
| Cc1cc(-c2cc3cnc(N(C)C4CCOCC4)cc3[nH]2)ccn1 [Example 114, N-methyl-2-(2-methylpyridin-4-yl)-N-(tetrahydro-2H-pyran-4-yl)-1H-pyrrolo[3,2-c]pyridin-6-amine] | > 1 µM | – | – | – |
| O=C(Nc1cc2[nH]c(-c3ccc(F)nc3)cc2cn1)C1CC1 [Example 248, N-(2-(6-fluoropyridin-3-yl)-1H-pyrrolo[3,2-c]pyridin-6-yl)cyclopropanecarboxamide] | – | 0 to 33% | 0 to 33% | – |
| COc1ccc(Nc2cc3c(cn2)cc(-c2cnn(C)c2)n3C)cc1 [Example 203, N-(4-methoxyphenyl)-1-methyl-2-(1-methyl-1H-pyrazol-4-yl)-1H-pyrrolo[3,2-c]pyridin-6-amine] | – | 0 to 33% | 67 to 100% | – |
| Cc1cccc(-c2cc3cnc(NC(=O)C4CC4)cc3n2C)n1 [Example 69, N-(1-methyl-2-(6-methylpyridin-2-yl)-1H-pyrrolo[3,2-c]pyridin-6-yl)cyclopropanecarboxamide] | > 1 µM | – | – | – |

| Structure (SMILES) | EC50 [1] | inhibition at 1 µM [2] | inhibition at 10 µM [3] | further results |
| --- | --- | --- | --- | --- |
| Cc1cc(-c2cc3cnc(NC(=O)C(C)(C)C)cc3[nH]2)ccn1 [Example 301, N-(2-(2-methylpyridin-4-yl)-1H-pyrrolo[3,2-c]pyridin-6-yl)pivalamide] | – | 0 to 33% | 0 to 33% | – |
| CCOc1nccc(-c2cc3cnc(NC(=O)c4cnn(CCO)c4C)cc3[nH]2)n1 [Example 230, N-(2-(2-ethoxypyrimidin-4-yl)-1H-pyrrolo[3,2-c]pyridin-6-yl)-1-(2-hydroxyethyl)-5-methyl-1H_ pyrazole-4-carboxamide] | – | 0 to 33% | 33 to 66% | – |
| O=C(Nc1cc2[nH]c(-c3ccncc3)cc2cn1)C1CCOCC1 [Example 68, N-(2-(pyridin-4-yl)-1H-pyrrolo[3,2-c]pyridin-6-yl)tetrahydro-2H-pyran-4-carboxamide] | > 1 µM | – | – | inhibition at 1 µM [4]: 0 to 33%; inhibition at 10 µM [5]: 67 to 100% |
| CC(C)Nc1cc2c(cn1)cc(-c1ccnc(NCC(F)(F)F)n1)n2C [Example 383, N-isopropyl-1-methyl-2-(2-(2,2,2-trifluoroethylamino)pyrimidin-4-yl)-1H-pyrrolo[3,2-c]pyridin-6-amine] | > 1 µM | – | – | – |
| Cc1ccc(-c2cc3cnc(NC4CCOCC4)cc3[nH]2)cc1 [Example 351, N-(tetrahydro-2H-pyran-4-yl)-2-p-tolyl-1H-pyrrolo[3,2-c]pyridin-6-amine] | > 1 µM | – | – | – |
| CC(C)n1cc(C(=O)Nc2cc3c(cn2)cc(-c2ccnc(NCCC(F)(F)F)n2)n3C)cn1 [Example 178, 1-isopropyl-N-(1-methyl-2-(2-(3,3,3-trifluoropropylamino)pyrimidin-4-yl)-1H-pyrrolo[3,2-c]pyridin-6-yl)-1H-pyrazole-4-carboxamide] | – | – | – | inhibition at 1 µM [4]: 0 to 33%; inhibition at 10 µM [5]: 67 to 100% |
| COc1nccc(-c2cc3cnc(NC(=O)c4cnn(C)c4)cc3n2C)n1 [Example 256, N-(2-(2-methoxypyrimidin-4-yl)-1-methyl-1H-pyrrolo[3,2-c]pyridin-6-yl)-1-methyl-1H-pyrazole-4-carboxamide] | – | 0 to 33% | 0 to 33% | – |
| COc1cc(Nc2cc3[nH]c(C#N)cc3cn2)cc(C2CCOCC2)c1 [Example 148, 6-(3-methoxy-5-(tetrahydro-2H-pyran-4-yl)phenylamino)-1H-pyrrolo[3,2-c]pyridine-2-carbonitrile] | – | – | – | inhibition at 1 µM [4]: 0 to 33%; inhibition at 10 µM [5]: 67 to 100% |
| Cn1cc(C(=O)Nc2cc3[nH]c(-c4cnco4)cc3cn2)cn1 [Example 64, 1-methyl-N-(2-(oxazol-5-yl)-1H-pyrrolo[3,2-c]pyridin-6-yl)-1H-pyrazole-4-carboxamide] | > 1 µM | – | – | inhibition at 1 µM [4]: 0 to 33%; inhibition at 10 µM [5]: 33 to 66% |
| Cc1cc(-c2cc3cnc(NC(=O)CN4CCCC4)cc3n2C)ncn1 [Example 128, N-(1-methyl-2-(6-methylpyrimidin-4-yl)-1H-pyrrolo[3,2-c]pyridin-6-yl)-2-(pyrrolidin-1-yl)acetamide] | > 1 µM | – | – | – |
| Cn1cc(C(=O)Nc2cc3c(cn2)cc(-c2ccnc(NCC4CC4)n2)n3C)cn1 [Example 159, N-(2-(2-(cyclopropylmethylamino)pyrimidin-4-yl)-1-methyl-1H-pyrrolo[3,2-c]pyridin-6-yl)-1-methyl-1H-pyrazole-4-carboxamide] | – | – | – | inhibition at 1 µM [4]: 0 to 33%; inhibition at 10 µM [5]: 67 to 100% |
| Cn1c(-c2ccccn2)cc2cnc(NC(=O)C3CC3)cc21 [Example 129, N-(1-methyl-2-(pyridin-2-yl)-1H-pyrrolo[3,2-c]pyridin-6-yl)cyclopropanecarboxamide] | > 1 µM | – | – | – |
| Cc1cn(C)nc1C(=O)Nc1cc2[nH]c(-c3ccncc3)cc2cn1 [Example 281, 1,4-dimethyl-N-(2-(pyridin-4-yl)-1H-pyrrolo[3,2-c]pyridin-6-yl)-1H-pyrazole-3-carboxamide] | – | 0 to 33% | 0 to 33% | – |
| COCCOc1ccc(C(=O)Nc2cc3[nH]c(-c4ccnc(OC)n4)cc3cn2)cc1OC [Example 252, 3-methoxy-4-(2-methoxyethoxy)-N-(2-(2-methoxypyrimidin-4-yl)-1H-pyrrolo[3,2-c]pyridin-6-yl)benzamide] | – | 0 to 33% | 0 to 33% | – |
| O=C(Nc1cc2[nH]c(-c3ccnc(C(F)(F)F)n3)cc2cn1)C1CC(O)C1 (stereo not drawn) [Example 247, (1s,3s)-3-hydroxy-N-(2-(2-(trifluoromethyl)pyrimidin-4-yl)-1H-pyrrolo[3,2-c]pyridin-6-yl)cyclobutanecarboxamide] | – | 33 to 66% | 0 to 33% | – |
| CN(CC(F)(F)F)c1cc(-c2cc3cnc(NC4CCOCC4)cc3[nH]2)ncn1 [Example 394, 2-(6-(methyl(2,2,2-trifluoroethyl)amino)pyrimidin-4-yl)-N-(tetrahydro-2H-pyran-4-yl)-1H-pyrrolo[3,2-c]pyridin-6-amine] | > 1 µM | – | – | – |
| COc1nc(C)cc(-c2cc3cnc(NC(=O)c4cnn(C)c4)cc3[nH]2)n1 [Example 315, N-(2-(2-methoxy-6-methylpyrimidin-4-yl)-1H-pyrrolo[3,2-c]pyridin-6-yl)-1-methyl-1H-pyrazole-4-carboxamide] | – | 0 to 33% | 0 to 33% | – |
